From publication PMC4532999 (Scientific Reports, 2015)
Positions of bridges follow the written chain, without caps; N, C: chain ends. Residues, ends and D or L forms follow the SMILES beside them.

How the values were obtained:
Serum stability assay = details: for remaining at 24 h, 30 μM: male, human, serum; for stability in human serum (in words; comparison to MCoTI-II at 24 h): 100% human serum, 37 °C, one-way ANOVA, three replicates
Experimental: All peptides were tested at a final concentration of 30 μM in 100% human serum. […] Reactions were stopped at the stipulated times and the serum proteins in each sample were denatured and precipitated, followed by centrifugation at 17,000 g for 10 min to separate the serum proteins from peptide samples. […] The elution time for each peptide was determined by the PBS control from 0 time point. The percentage of peptide remaining at each time point was calculated using the height of the serum-treated peptide peak from time 0 as 100% recovery.

Abl kinase = Abl kinase (Homo sapiens, UniProt P00519); test: BacKin assay, inhibition of phosphorylation of abltide displayed on E. coli; assay type: biochemical; details: 32 μM peptide, Abl kinase 0.2 U/mL, 37 °C, 30 min
Sequence of Abl kinase (P00519 whole entry): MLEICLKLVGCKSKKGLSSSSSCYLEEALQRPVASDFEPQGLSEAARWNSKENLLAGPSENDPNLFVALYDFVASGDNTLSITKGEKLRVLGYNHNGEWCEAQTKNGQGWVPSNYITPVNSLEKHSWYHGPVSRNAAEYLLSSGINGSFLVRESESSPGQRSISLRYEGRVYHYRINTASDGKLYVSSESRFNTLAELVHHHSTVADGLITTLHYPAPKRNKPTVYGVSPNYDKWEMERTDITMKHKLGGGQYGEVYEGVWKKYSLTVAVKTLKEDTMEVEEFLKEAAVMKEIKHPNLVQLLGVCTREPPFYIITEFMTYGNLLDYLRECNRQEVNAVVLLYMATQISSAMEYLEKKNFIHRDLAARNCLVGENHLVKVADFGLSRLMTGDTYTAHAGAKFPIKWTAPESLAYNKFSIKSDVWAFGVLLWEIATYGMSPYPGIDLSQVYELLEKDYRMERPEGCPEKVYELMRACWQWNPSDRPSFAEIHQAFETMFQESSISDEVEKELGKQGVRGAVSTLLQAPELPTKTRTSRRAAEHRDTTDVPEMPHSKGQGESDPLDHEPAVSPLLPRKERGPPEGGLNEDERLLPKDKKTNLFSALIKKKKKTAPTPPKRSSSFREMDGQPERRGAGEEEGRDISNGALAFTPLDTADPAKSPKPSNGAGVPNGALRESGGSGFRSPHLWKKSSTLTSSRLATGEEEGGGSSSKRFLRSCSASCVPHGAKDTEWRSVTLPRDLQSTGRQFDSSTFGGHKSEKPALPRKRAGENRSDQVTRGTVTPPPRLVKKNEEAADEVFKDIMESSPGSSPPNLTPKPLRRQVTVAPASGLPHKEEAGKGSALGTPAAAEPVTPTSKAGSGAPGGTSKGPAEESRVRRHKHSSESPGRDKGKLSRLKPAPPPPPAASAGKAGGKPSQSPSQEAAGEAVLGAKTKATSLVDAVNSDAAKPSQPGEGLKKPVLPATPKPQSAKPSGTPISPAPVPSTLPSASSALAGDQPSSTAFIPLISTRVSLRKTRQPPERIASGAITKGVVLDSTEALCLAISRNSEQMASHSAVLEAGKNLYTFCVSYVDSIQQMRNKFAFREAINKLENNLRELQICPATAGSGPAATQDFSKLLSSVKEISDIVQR

HeLa cells = tested on: HeLa cells
Experimental: Since BCR-ABL localizes predominantly in the cytoplasm, it is important to evaluate whether the designed peptides can be internalized into cells.
Human cervical cancer cells (HeLa) were seeded in 175-cm^2 tissue culture flasks (Falcon), in Dulbecco’s Modified Eagle’s Medium (DMEM) supplemented with 10% fetal bovine serum, 100 U/mL penicillin and […] streptomycin, until 80% confluent.
Cytotoxicity of the MTAbl peptides towards HeLa cells was evaluated before the cell internalization assay. The mammalian cell cytotoxicity assay was conducted using a method described earlier. HeLa cells were seeded the day before the assay in 96-well tissue culture-treated plates (2.5 × 10^3 cells/well). […] Peptide solutions were diluted 10-fold with serum-free medium and incubated with cells in triplicates for 2 h. […] Following incubation the peptide solutions were removed and aliquots of 10 μL of 0.02% (w/v) sterile resazurin (resazurin sodium salt, Sigma) were added to each well containing 100 μL of fresh medium. […] The absorbance of the plates was measured on a plate reader at 540 and 620 nm.

[1] = 100% human male AB serum (Sigma); details: 37 °C, up to 24 h

fragment found [1] | Molecule | remaining at 24 h, 30 μM (Serum stability assay) | percentage of Abl kinase inhibition (Abl kinase) | concentration up to which no cytotoxicity towards HeLa cells (HeLa cells) | stability in human serum (in words; comparison to MCoTI-II at 24 h) (Serum stability assay)
– | CC[C@H](C)[C@@H]1NC(=O)[C@H](C)NC(=O)[C@H](CCC(=O)O)NC(=O)CNC(=O)[C@@H]2CSSC[C@@H]3NC(=O)[C@H](CC(=O)O)NC(=O)[C@H](CO)NC(=O)[C@H](CC(=O)O)NC(=O)[C@H](CCCNC(=N)N)NC(=O)[C@H](CCCNC(=N)N)NC(=O)[C@@H]4CSSC[C@H](NC(=O)[C@H]([C@@H](C)CC)NC(=O)[C@H](CSSC[C@H](NC(=O)[C@H](CCCNC(=N)N)NC(=O)[C@H](C)NC(=O)[C@H](Cc5ccccc5)NC(=O)[C@@H]5CCCN5C(=O)[C@H](C)NC(=O)[C@H](C)NC(=O)[C@H](Cc5ccc(O)cc5)NC1=O)C(=O)N1CCC[C@H]1C(=O)N[C@@H](CCCCN)C(=O)N[C@@H]([C@@H](C)CC)C(=O)N[C@@H](CC(C)C)C(=O)N[C@@H](CCCCN)C(=O)N[C@@H](CCCCN)C(=O)N4)NC(=O)[C@H](C)NC(=O)CNC(=O)[C@@H]1CCCN1C3=O)C(=O)N[C@@H](CCCNC(=N)N)C(=O)NCC(=O)N[C@@H](CC(N)=O)C(=O)NCC(=O)N[C@@H](Cc1ccc(O)cc1)C(=O)N2 [MTAbl06] (cyclo(AAPFARCPKILKKCRRDSDCPGACICRGNGYCGEAIY); disulfide 7-24, 14-26, 20-32) | > 75% | ~ 90% | > 64 µM | –
– | CC[C@H](C)[C@@H]1NC(=O)[C@H](C)NC(=O)[C@H](CCC(=O)O)NC(=O)CNC(=O)[C@@H]2CSSC[C@@H]3NC(=O)[C@H](CC(=O)O)NC(=O)[C@H](CO)NC(=O)[C@H](CC(=O)O)NC(=O)[C@H](CCCNC(=N)N)NC(=O)[C@H](CCCNC(=N)N)NC(=O)[C@@H]4CSSC[C@H](NC(=O)[C@H]([C@@H](C)CC)NC(=O)[C@H](CSSC[C@H](NC(=O)[C@H](CCCNC(=N)N)NC(=O)[C@H](CCCNC(=N)N)NC(=O)[C@H](CCCNC(=N)N)NC(=O)[C@H](C)NC(=O)[C@H](Cc5ccccc5)NC(=O)[C@@H]5CCCN5C(=O)[C@H](C)NC(=O)[C@H](C)NC(=O)[C@H](Cc5ccc(O)cc5)NC1=O)C(=O)N1CCC[C@H]1C(=O)N[C@@H](CCCCN)C(=O)N[C@@H]([C@@H](C)CC)C(=O)N[C@@H](CC(C)C)C(=O)N[C@@H](CCCCN)C(=O)N[C@@H](CCCCN)C(=O)N4)NC(=O)[C@H](C)NC(=O)CNC(=O)[C@@H]1CCCN1C3=O)C(=O)N[C@@H](CCCNC(=N)N)C(=O)NCC(=O)N[C@@H](CC(N)=O)C(=O)NCC(=O)N[C@@H](Cc1ccc(O)cc1)C(=O)N2 [MTAbl07] (cyclo(AAPFARRRCPKILKKCRRDSDCPGACICRGNGYCGEAIY); disulfide 9-26, 16-28, 22-34) | > 75% | – | > 64 µM | as stable as MCoTI-II
– | CC[C@H](C)[C@@H]1NC(=O)[C@H](C)NC(=O)[C@H](CCC(=O)O)NC(=O)[C@@H]2CSSC[C@@H]3NC(=O)[C@H](C)NC(=O)CNC(=O)[C@@H]4CCCN4C(=O)[C@@H]4CSSC[C@H](NC(=O)[C@H](Cc5ccc(O)cc5)NC(=O)CNC(=O)[C@H](CC(N)=O)NC(=O)CNC(=O)[C@H](CCCNC(=N)N)NC(=O)[C@H](CSSC[C@H](NC(=O)[C@H](CCCCN)NC(=O)[C@@H]5CCCN5C(=O)[C@H](C)NC(=O)[C@H](C)NC(=O)[C@H](Cc5ccc(O)cc5)NC1=O)C(=O)N[C@@H](CCCNC(=N)N)C(=O)N[C@@H](CCCNC(=N)N)C(=O)N[C@@H](CC(=O)O)C(=O)N[C@@H](CO)C(=O)N[C@@H](CC(=O)O)C(=O)N4)NC(=O)[C@H]([C@@H](C)CC)NC3=O)C(=O)NCC(=O)N[C@@H](CO)C(=O)NCC(=O)N[C@@H](CO)C(=O)N[C@@H](CC(=O)O)C(=O)NCC(=O)NCC(=O)N[C@@H](C(C)C)C(=O)N2 [MTAbl09] (cyclo(AAPKCRRDSDCPGACICRGNGYCGSGSDGGVCEAIY); disulfide 5-17, 11-23, 15-32) | > 75% | – | > 64 µM | statistically more stable than MCoTI-II
– | CC[C@H](C)[C@@H]1NC(=O)[C@H](C)NC(=O)[C@H](CCC(=O)O)NC(=O)CNC(=O)[C@@H]2CSSC[C@@H]3NC(=O)[C@H](CC(=O)O)NC(=O)[C@H](CO)NC(=O)[C@H](CC(=O)O)NC(=O)[C@H](CCCNC(=N)N)NC(=O)[C@H](CCCNC(=N)N)NC(=O)[C@@H]4CSSC[C@H](NC(=O)[C@H]([C@@H](C)CC)NC(=O)[C@H](CSSC[C@H](NC(=O)[C@H](CCCNC(=N)N)NC(=O)[C@H](C)NC(=O)[C@H](Cc5ccccc5)NC(=O)[C@@H]5CCCN5C(=O)[C@H](C)NC(=O)[C@H](C)NC(=O)[C@H](Cc5ccc(O)cc5)NC1=O)C(=O)N[C@@H](CCC(=O)O)C(=O)N[C@@H](C)C(=O)N[C@@H]([C@@H](C)CC)C(=O)N[C@@H](Cc1ccc(O)cc1)C(=O)N[C@@H](C)C(=O)N[C@@H](C)C(=O)N1CCC[C@H]1C(=O)N[C@@H](CCCCN)C(=O)N4)NC(=O)[C@H](C)NC(=O)CNC(=O)[C@@H]1CCCN1C3=O)C(=O)N[C@@H](CCCNC(=N)N)C(=O)NCC(=O)N[C@@H](CC(N)=O)C(=O)NCC(=O)N[C@@H](Cc1ccc(O)cc1)C(=O)N2 [MTAbl13] (cyclo(AAPFARCEAIYAAPKCRRDSDCPGACICRGNGYCGEAIY); disulfide 7-26, 16-28, 22-34) | > 75% | – | > 64 µM | statistically more stable than MCoTI-II
– | CC[C@H](C)[C@@H]1NC(=O)[C@H](C)NC(=O)[C@H](CCC(=O)O)NC(=O)CNC(=O)[C@@H]2CSSC[C@@H]3NC(=O)[C@H](CC(=O)O)NC(=O)[C@H](CO)NC(=O)[C@H](CC(=O)O)NC(=O)[C@H](CCCNC(=N)N)NC(=O)[C@H](CCCNC(=N)N)NC(=O)[C@@H]4CSSC[C@H](NC(=O)[C@H]([C@@H](C)CC)NC(=O)[C@H](CSSC[C@H](NC(=O)[C@H](CCCNC(=N)N)NC(=O)[C@H](CCCNC(=N)N)NC(=O)[C@H](CCCNC(=N)N)NC(=O)[C@H](C)NC(=O)[C@H](Cc5ccccc5)NC(=O)[C@@H]5CCCN5C(=O)[C@H](C)NC(=O)[C@H](C)NC(=O)[C@H](Cc5ccc(O)cc5)NC1=O)C(=O)N1CCC[C@H]1C(=O)N[C@@H](CCCNC(=N)N)C(=O)N[C@@H]([C@@H](C)CC)C(=O)N[C@@H](CC(C)C)C(=O)N[C@@H](CCCNC(=N)N)C(=O)N[C@@H](CCCCN)C(=O)N4)NC(=O)[C@H](C)NC(=O)CNC(=O)[C@@H]1CCCN1C3=O)C(=O)N[C@@H](CCCNC(=N)N)C(=O)NCC(=O)N[C@@H](CC(N)=O)C(=O)NCC(=O)N[C@@H](Cc1ccc(O)cc1)C(=O)N2 [MTAbl15] (cyclo(AAPFARRRCPRILRKCRRDSDCPGACICRGNGYCGEAIY); disulfide 9-26, 16-28, 22-34) | – | – | > 64 µM | –
MTAbl06 (i.e. dephosphorylated MTAbl12) | CPKILKKCRRDSDCPGACICRGNGYCGEAIY*AAPFAR | – | – | – | –
